Test results as given in patent US20240208964A1, “PYRIDOPYRIMIDINES AND METHODS OF THEIR USE” (PYRIDOPYRIMIDINES AND METHODS OF THEIR USE, priority 2020, published 2024).
Where two headings read alike, the source gives them in different places.

How the values were obtained:
FAB1 TDP-43 yeast strain = experiment: Propidium iodide viability assay in FAB1 TDP-43 control yeast strain; format: cell-based; settings: for FAB1 TDP-43 (active/inactive): FAB1 TDP-43 yeast model
Description: (§1) Generation of TDP-43 yeast model expressing human PIKfyve. Human PIKFYVE (“entry clone”) was cloned into pAG416GPDccdB (“destination vector”) according to standard Gateway cloning protocols (Invitrogen, Life Technologies). The resulting pAG416GPD-PIKFYVE plasmids were amplified in E. coli and plasmid identity confirmed by restriction digest and Sanger sequencing. Lithium acetate/polyethylene glycol-based transformation was used to introduce the above PIKFYVE plasmid into a BY4741 yeast strain auxotrophic for the ura3 gene and deleted for two transcription factors that regulate the xenobiotic efflux pumps, a major efflux pump, and FAB1, the yeast ortholog of PIKFYVE (MATa, snq2::KILeu2; pdr3::Klura3;pdrl::NATMX; fab1::G418^R, his3;leu2;ura3;met15;LYS2+) (FIG. 2). Transformed yeast were plated on solid agar plates with complete synthetic media lacking uracil (CSM-ura) and containing 2% glucose. Individual colonies harboring the control or PIKFYVE TDP-43 plasmids were recovered. A plasmid containing wild-type TDP-43 under the transcriptional control of the GAL1 promoter and containing the hygromycin-resistance gene as a selectable marker was transformed into the fab1::G418^R pAG416GPD-PIKFYVE yeast strain (FIG. 1). Transformed yeast were plated on CSM-ura containing 2% glucose and 200 μg/mL […] after overnight recovery in media lacking antibiotic. Multiple independent isolates were further evaluated for cytotoxicity and TDP-43 expression levels.
(§2) Viability Assay. A control yeast strain with the wild-type yeast FAB1 gene and TDP-43 (“FAB1 TDP-43”, carries empty pAG416 plasmid), and the “PIKFYVE TDP-43” yeast strain, were assessed for toxicity using a propidium iodide viability assay. Both yeast strains were transferred from solid CSM-ura/2% glucose agar plates into 3 mL of liquid CSM-ura/2% glucose media for 6-8 hours at 30° C. with aeration. Yeast cultures were then diluted to an optical density at 600 nm wavelength (OD600) of 0.005 in 3 mL of CSM-ura/2% raffinose and grown overnight at 30° C. with aeration to an OD600 of 0.3-0.8. Log-phase overnight cultures were diluted to OD600 of 0.005 in CSM-ura containing either 2% raffinose or galactose and 150 μL dispensed into each well of a flat bottom 96-well plates. Compounds formulated in 100% dimethyl sulfoxide (DMSO) were serially diluted in DMSO and 1.5 μL diluted compound transferred to the 96-well plates using a multichannel pipet. Wells containing DMSO alone were also evaluated as controls for compound effects. Tested concentrations ranged from 15 μM to 0.11 μM. Cultures were immediately mixed to ensure compound distribution and covered plates incubated at 30° C. for 24 hours in a stationary, humified incubator.
(§3) Upon the completion of incubation, cultures were assayed for viability using propidium iodide (PI) to stain for dead/dying cells. A working solution of PI was made where, for each plate, 1 μL of 10 mM PI was added to 10 mL of CSM-ura (raffinose or galactose). The final PI solution (50 μL/well) was dispensed into each well of a new round bottom 96-well plate. The overnight 96-well assay plate was then mixed with a multichannel pipet and 50 μL transferred to the PI-containing plate. This plate was then incubated for 30 minutes at 30° C. in the dark. A benchtop flow cytometer (Miltenyi MACSquant) was then used to assess red fluorescence (B2 channel), forward scatter, and side scatter (with following settings: gentle mix, high flow rate, fast measurement, 10,000 events). Intensity histograms were then gated for “PI-positive” or “PI-negative” using the raffinose and galactose cultures treated with DMSO as controls. The DMSO controls for raffinose or galactose-containing cultures were used to determine the window of increased cell death and this difference set to 100. All compounds were similarly gated and then compared to this maximal window to establish the percent reduction in PI-positive cells.

[1] = tested on: PIKFYVE TDP-43 yeast strain; experiment: Propidium iodide viability assay in PIKFYVE TDP-43 yeast strain; format: cell-based; settings: for PIKfyve TDP-43 (active/inactive): PIKFYVE TDP-43 yeast model; for IC50: Saccharomyces cerevisiae, reduction in PI-positive cells, 24 hours, up to 15 μM
Description: as §1, §2, §3

[2] = target: full-length human PIKFYVE (GST-PIKFYVE) (Homo sapiens (Human), UniProt Q9Y2I7, L932S/Q1183K/Q995L/S1033A/S696N/T998S); experiment: PIKfyve biochemical assay (ADP-Glo Kinase assay, Carna Biosciences)
full-length human PIKFYVE (GST-PIKFYVE), sequence (Q9Y2I7 whole entry S696N/L932S/Q995L/T998S/S1033A/Q1183K, the tested form may be a part): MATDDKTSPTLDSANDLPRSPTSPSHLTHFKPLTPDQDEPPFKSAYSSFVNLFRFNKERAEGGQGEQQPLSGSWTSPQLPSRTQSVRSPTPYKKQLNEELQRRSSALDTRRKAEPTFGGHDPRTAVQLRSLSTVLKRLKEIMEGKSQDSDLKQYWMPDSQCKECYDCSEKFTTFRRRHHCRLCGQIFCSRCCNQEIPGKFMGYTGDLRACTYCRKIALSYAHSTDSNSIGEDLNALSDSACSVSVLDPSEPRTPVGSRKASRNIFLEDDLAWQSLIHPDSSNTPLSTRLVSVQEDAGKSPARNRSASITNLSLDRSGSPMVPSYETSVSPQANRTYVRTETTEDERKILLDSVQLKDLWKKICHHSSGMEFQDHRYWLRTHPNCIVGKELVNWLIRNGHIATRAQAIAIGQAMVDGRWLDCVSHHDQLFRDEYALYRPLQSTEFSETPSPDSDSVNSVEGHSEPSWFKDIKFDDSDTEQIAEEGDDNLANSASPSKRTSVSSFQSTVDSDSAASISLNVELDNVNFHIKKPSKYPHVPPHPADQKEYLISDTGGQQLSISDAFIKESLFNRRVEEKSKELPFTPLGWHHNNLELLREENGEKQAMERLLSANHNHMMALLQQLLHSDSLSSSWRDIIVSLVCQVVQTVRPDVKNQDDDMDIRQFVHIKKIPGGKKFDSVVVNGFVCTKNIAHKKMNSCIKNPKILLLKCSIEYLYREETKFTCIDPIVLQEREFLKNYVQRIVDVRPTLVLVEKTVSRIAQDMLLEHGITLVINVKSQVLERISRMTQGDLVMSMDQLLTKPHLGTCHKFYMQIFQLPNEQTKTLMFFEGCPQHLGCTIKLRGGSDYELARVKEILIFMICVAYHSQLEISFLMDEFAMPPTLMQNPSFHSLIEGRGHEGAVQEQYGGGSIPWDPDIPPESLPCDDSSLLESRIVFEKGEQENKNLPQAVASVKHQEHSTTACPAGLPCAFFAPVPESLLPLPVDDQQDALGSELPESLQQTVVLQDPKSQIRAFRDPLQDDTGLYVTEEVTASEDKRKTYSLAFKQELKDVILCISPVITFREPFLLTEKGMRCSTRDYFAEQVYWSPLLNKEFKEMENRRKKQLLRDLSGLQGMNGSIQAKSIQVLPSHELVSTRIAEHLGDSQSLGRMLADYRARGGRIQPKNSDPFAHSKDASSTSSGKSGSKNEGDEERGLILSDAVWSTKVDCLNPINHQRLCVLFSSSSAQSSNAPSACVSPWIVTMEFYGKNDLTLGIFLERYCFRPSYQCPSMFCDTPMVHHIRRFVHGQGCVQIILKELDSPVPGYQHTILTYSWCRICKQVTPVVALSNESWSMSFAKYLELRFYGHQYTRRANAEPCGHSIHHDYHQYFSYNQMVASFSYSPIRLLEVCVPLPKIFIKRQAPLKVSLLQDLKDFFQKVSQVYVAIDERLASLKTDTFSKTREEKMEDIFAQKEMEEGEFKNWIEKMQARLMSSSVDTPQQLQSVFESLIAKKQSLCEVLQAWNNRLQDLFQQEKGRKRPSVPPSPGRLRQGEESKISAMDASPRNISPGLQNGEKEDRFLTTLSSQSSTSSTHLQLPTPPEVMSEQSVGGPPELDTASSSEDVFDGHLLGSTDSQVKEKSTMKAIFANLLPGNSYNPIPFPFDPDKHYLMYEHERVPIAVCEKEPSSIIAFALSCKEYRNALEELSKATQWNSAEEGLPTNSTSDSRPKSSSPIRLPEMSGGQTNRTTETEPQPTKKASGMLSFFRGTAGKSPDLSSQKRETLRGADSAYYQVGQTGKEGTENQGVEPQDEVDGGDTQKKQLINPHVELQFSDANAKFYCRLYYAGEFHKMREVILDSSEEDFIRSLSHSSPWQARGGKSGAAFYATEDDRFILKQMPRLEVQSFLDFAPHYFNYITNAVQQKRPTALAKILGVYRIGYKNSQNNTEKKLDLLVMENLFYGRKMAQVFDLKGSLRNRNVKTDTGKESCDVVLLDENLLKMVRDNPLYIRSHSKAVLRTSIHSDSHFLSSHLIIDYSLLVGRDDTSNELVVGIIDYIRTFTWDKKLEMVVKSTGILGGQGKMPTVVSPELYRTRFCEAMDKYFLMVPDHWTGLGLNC
Description: PIKfyve Biochemical Assay. The biochemical PIKFyve inhibition assays were run by Carna Biosciences according to proprietary methodology based on the Promega ADP-Glo™ Kinase assay. A full-length human PIKFYVE [1-2098(end) amino acids and S696N, L932S, Q995L, T998S, S1033A and Q1183K of the protein having the sequence set forth in NCBI Reference Sequence No. NP_055855.2] was expressed as N-terminal GST-fusion protein (265 kDa) using baculovirus expression system. GST-PIKFYVE was purified by using glutathione sepharose chromatography and used in an ADP-Glo™ Kinase assay (Promega). Reactions were set up by adding the test compound solution, substrate solution, ATP solution and kinase solution, each at 4× final concentrations. Reactions were prepared with assay buffer (50 mM MOPS, 1 mM DTT, pH7.2), mixed, and incubated in black 384 well polystyrene plates for 1 hour at room temperature. ADP-Glo™ reagent was then added for 40 minutes, followed by kinase detection reagent for an additional 40 minutes. The kinase activity was evaluated by detecting relative light units on a luminescence plate reader. Samples were run in duplicate from 10 μM to 3 nM. […] IC50 values were calculated from concentration vs % inhibition curves by fitting to a four-parameter logistic curve.
The biochemical PIKFyve inhibition assays were run by Carna Biosciences according to proprietary methodology based on the Promega ADP-Glo™ Kinase assay. A full-length human PIKFYVE [1-2098(end) amino acids and S696N, L932S, Q995L, T998S, S1033A and Q1183K of accession number NP_055855.2] was expressed as N-terminal GST-fusion protein (265 kDa) using baculovirus expression system. GST-PIKFYVE was purified by using glutathione sepharose chromatography and used in an ADP-Glo™ Kinase assay (Promega).
Reactions were set up by adding the test compound solution, substrate solution, ATP solution and kinase solution, each at 4× final concentrations. Reactions were prepared with assay buffer (50 mM MOPS, 1 mM DTT, pH7.2), mixed, and incubated in black 384 well polystyrene plates for 1 hour at room temperature. ADP-Glo™ reagent was then added for 40 minutes, followed by kinase detection reagent for an additional 40 minutes. The kinase activity was evaluated by detecting relative light units on a luminescence plate reader. Samples were run in duplicate from 10 uM to 3 nM. […] IC50 values were calculated from concentration vs % inhibition curves by fitting to a four-parameter logistic curve.

[3] = target: PIKfyve (PIKFYVE-NanoLuc fusion in HEK293 cells) (Homo sapiens (Human), UniProt Q9Y2I7); experiment: NanoBRET TE Intracellular Kinase Assay, K-8 (Promega) cell-based assay; settings: 2 hours, read-out: hPIKfyve BRET IC50
PIKfyve (PIKFYVE-NanoLuc fusion in HEK293 cells), sequence (Q9Y2I7 whole entry, the tested form may be a part): as the sequence (Q9Y2I7 whole entry S696N/L932S/Q995L/T998S/S1033A/Q1183K, the tested form may be a part) above, with N696S, S932L, L995Q, S998T, A1033S, K1183Q counted along it
Procedure: NanoBRET™ TE Intracellular Kinase Assay, K-8 (Promega) Cell-Based Assay. Intracellular inhibition of PIKfyve was assayed using Promega's NanoBRET™ TE Intracellular Kinase Assay, K-8 according to manufacturer's instructions. A dilution series of test compounds was added for 2 hours to HEK293 cells transfected for a minimum of 20 hours with PIKFYVE-NanoLuc® Fusion Vector (Promega) containing a full-length PIKfyve according to manufacturer's specifications in a 96-well plate. Kinase activity was detected by addition of a NanoBRET™ tracer reagent, which was a proprietary PIKfyve inhibitor appended to a fluorescent probe (BRET, bioluminescence resonance energy transfer). Test compounds were tested at concentrations of 10, 3, 1, 0.3, 0.1, 0.03, 0.01, 0.003 μM. BRET signals were measured by a GloMax®Discover Multimode Microplate Reader (Promega) using 0.3 sec/well integration time, 450BP donor filter and 600LP acceptor filters. Active test compounds that bound PIKfyve and displaced the tracer reduced BRET signal. IC50 values were then calculated by fitting the data to the normalized BRET ratio.

[4] = ADP-Glo, full-length human PIKFYVE, read-out: hPIKfyve IC50

Row | SMILES | IC50 [1] | IC50 [2, 4] | IC50 [3] | also measured
1 | Cc1cccc(/C=N/Nc2cc(N3CC4CC3CO4)n3nc(-c4ccncc4)cc3n2)c1 (centres unmarked) |  |  |  | FAB1 TDP-43 (active/inactive) (FAB1 TDP-43 yeast strain): Inactive; PIKfyve TDP-43 (active/inactive) [1]: Active
2 | Cn1c(-c2ccncc2)nc2c(N3CCOCC3)ncnc21 |  |  |  | FAB1 TDP-43 (active/inactive) (FAB1 TDP-43 yeast strain): Inactive; PIKfyve TDP-43 (active/inactive) [1]: Inactive
3 | CN(C)c1cc(N2CCOCC2)n2nc(-c3ccncc3)cc2n1 |  |  |  | FAB1 TDP-43 (active/inactive) (FAB1 TDP-43 yeast strain): Inactive; PIKfyve TDP-43 (active/inactive) [1]: Inactive
4 | N#Cc1cc(N2CCOCC2)n2nc(-c3ccncc3)cc2n1 |  |  |  | FAB1 TDP-43 (active/inactive) (FAB1 TDP-43 yeast strain): Inactive; PIKfyve TDP-43 (active/inactive) [1]: Inactive
5 | Cc1cccc(/C=N/Nc2cc(N3CCOCC3)nc(OCCc3ccc(CN)cc3)n2)c1 | 1120 nM |  |  | 
6 | c1ccc(-c2cccc(-c3cc(N4CCOCC4)n4nc(-c5ccncc5)cc4n3)n2)cc1 | 230 nM |  |  | 
7 | Oc1cc(-c2ccccc2)nn1-c1cc(N2CCOCC2)n2nc(-c3ccncc3)nc2n1 | 693 nM |  |  | 
8 | Oc1cc(C2CCOCC2)nn1-c1cc(N2CCOCC2)n2nc(-c3ccncc3)cc2n1 | 9100 nM |  |  | 
9 | c1ccc(-c2ccnc(-c3cc(N4CCOCC4)nc(OCc4ccncc4)n3)n2)cc1 | 1450 nM |  |  | 
10 | c1ccc(N2CCc3c(OCc4cccnc4)nc(N4CCOCC4)nc32)cc1 | 2680 nM |  |  | 
11 | Fc1cccc(-c2ccnn2-c2nc(N3CCOCC3)c3ncccc3n2)c1 | 5750 nM |  |  | IC50 ([2]; values plotted in FIG. 7, read-out: PIKFYVE Biochemistry (IC50)): > 10000 nM
12 | Cc1cccc(/C=N/Nc2cc(N3CCOCC3)n3nc(-c4ccncc4)cc3n2)c1 [APY0201, reference compound] |  |  |  | viable cells in FAB1 TDP-43 (FAB1 TDP-43 yeast strain; range of compound concentrations (only 0.23 μM is shown), FIG. 5): no increase in viable cells; propidium iodide-positive dead cells in PIKFYVE TDP-43 ([1]; 0.23 μM, FIG. 6): reduced the population of propidium iodide-positive dead cells
13 | c1ccc(-c2ccn(-c3nc(N4CCOCC4)c4ncccc4n3)n2)cc1 [compound 8, 4-(2-(3-phenyl-1H-pyrazol-1-yl)pyrido[3,2-d]pyrimidin-4-yl)morpholine] |  | 10 to 100 nM | 100 to 1000 nM | 
14 | c1ccc(-c2ccn(-c3nc(N4CCOCC4)c4ncc(C5CCCCO5)cc4n3)n2)cc1 (centres unmarked) [compound 18, 4-(2-(3-Phenyl-1H-pyrazol-1-yl)-7-(tetrahydro-2H-pyran-2-yl)pyrido[3,2-d]pyrimidin-4-yl)morpholine] |  | 10 to 100 nM | 100 to 1000 nM | 
15 | c1ccc(-c2ccn(-c3nc(N4CCOCC4)c4ncc(C5CCOCC5)cc4n3)n2)cc1 [compound 20, 4-[2-(3-phenylpyrazol-1-yl)-7-tetrahydropyran-4-yl-pyrido[3,2-d]pyrimidin-4-yl]morpholine] |  | 10 to 100 nM | 100 to 1000 nM | 
16 | C1=C(c2cnc3c(N4CCOCC4)nc(-n4ccc(-c5ccccc5)n4)nc3c2)CCOC1 [compound 21, 4-(7-(3,6-dihydro-2H-pyran-4-yl)-2-(3-phenyl-1H-pyrazol-1-yl)pyrido[3,2-d]pyrimidin-4-yl)morpholine] |  | 10 to 100 nM | 10 to 100 nM | 
17 | c1ccc(-c2ccn(-c3nc(N4CCOCC4)c4ncc(C5CCCO5)cc4n3)n2)cc1 (centres unmarked) [compound 22, 4-(2-(3-phenyl-1H-pyrazol-1-yl)-7-(tetrahydrofuran-2-yl)pyrido[3,2-d]pyrimidin-4-yl)morpholine] |  | 10 to 100 nM | 100 to 1000 nM | 
18 | Cc1cccc(/C=N/Nc2nc(N3CCOCC3)c3ncccc3n2)c1 [compound 24, (E)-4-(2-(2-(3-methylbenzylidene)hydrazinyl)pyrido[3,2-d]pyrimidin-4-yl)morpholine] |  | 10 to 100 nM | 10 to 100 nM | 
19 | Cc1cccc(-c2cc(O)n(-c3nc(N4CCOCC4)c4ncccc4n3)n2)c1 [compound 26, 1-(4-morpholinopyrido[3,2-d]pyrimidin-2-yl)-3-m-tolyl-1H-pyrazol-5-ol] |  | 10 to 100 nM | 100 to 1000 nM | 
20 | c1ccc(-c2nccc(-c3nc(N4CCOCC4)c4ncccc4n3)n2)cc1 [compound 39, 4-(2-(2-phenylpyrimidin-4-yl)pyrido[3,2-d]pyrimidin-4-yl)morpholine] |  | < 10 nM | 100 to 1000 nM | 
21 | c1ccc(Nc2nc(N3CCOCC3)c3ncc(Cc4cccnc4)cc3n2)cc1 [compound 79] |  | 100 to 1000 nM | 100 to 1000 nM | 
22 | Cc1cccc(/C=N/Nc2nc(N3CCOCC3)c3ncc(Cc4cccnc4)cc3n2)c1 [compound 80] |  | 10 to 100 nM | 10 to 100 nM | 
23 | Cc1cccc(-c2cc(O)n(-c3nc(N4CCOCC4)c4ncc(Cc5cccnc5)cc4n3)n2)c1 [compound 81] |  | 10 to 100 nM | 100 to 1000 nM | 
24 | Cc1cccc(/C=N/Nc2cc(N3CCOCC3)n3nc(-c4ccncc4)cc3n2)c1 [drawing 292] |  |  |  | FAB1 TDP-43 (active/inactive) (FAB1 TDP-43 yeast strain): Inactive; PIKfyve TDP-43 (active/inactive) [1]: Active
25 | Cc1cccc(/C=N/Nc2nc(N3CCOCC3)c3nc(-c4ccncc4)n(C)c3n2)c1 [drawing 308] | 4720 nM |  |  | 
26 | Cc1cccc(/C=N/Nc2nc(N3CCOCC3)c3ncccc3n2)c1 [drawing 311] | 8210 nM |  |  | 
